In the NIST ThermoML archive (doi:10.1021/je0501585):

Assay: xn = mol fraction of the nth substance listed
Settings: 101 kPa, Liquid; for viscosity: Capillary tube (Ostwald / Ubbelohde) method; for excess molar volume: Direct dilatometry; for speed of sound: Linear variable-path acoustic interferometer

Cc1ccc(C)cc1 [1,4-dimethylbenzene] + CCCCCCCCCC
Settings | excess molar volume, 303.15 K [m3/mol] | excess molar volume, 308.15 K [m3/mol] | excess molar volume, 313.15 K [m3/mol] | speed of sound, 303.15 K [m/s] | speed of sound, 308.15 K [m/s] | speed of sound, 313.15 K [m/s] | viscosity, 303.15 K [mPa·s] | viscosity, 308.15 K [mPa·s] | viscosity, 313.15 K [mPa·s]
x1 = 0.1533 | 2.83e-07 | 4.89e-07 | 6.99e-07 | 1215.1 | 1192.3 | 1176.9 | 0.729 | 0.678 | 0.66
x1 = 0.2952 | 4.35e-07 | 6.8e-07 | 9.11e-07 | 1220 | 1197.6 | 1182 | 0.68 | 0.639 | 0.623
x1 = 0.4189 | 5.14e-07 | 7.6e-07 | 9.8e-07 | 1225.5 | 1203.1 | 1187.7 | 0.646 | 0.609 | 0.59
x1 = 0.4949 | 5.29e-07 | 7.59e-07 | 9.81e-07 | 1230 | 1207.3 | 1192 | 0.628 | 0.592 | 0.573
x1 = 0.6001 | 4.9e-07 | 7.03e-07 | 9.41e-07 | 1237.9 | 1214.1 | 1198.8 | 0.605 | 0.572 | 0.552
x1 = 0.6938 | 4.26e-07 | 6.32e-07 | 8.76e-07 | 1246.6 | 1221.6 | 1205.6 | 0.588 | 0.557 | 0.538
x1 = 0.7777 | 3.54e-07 | 5.56e-07 | 7.71e-07 | 1255.4 | 1229 | 1212.5 | 0.576 | 0.546 | 0.527
x1 = 0.8604 | 2.73e-07 | 4.55e-07 | 6.47e-07 | 1265.3 | 1238.4 | 1221.3 | 0.568 | 0.539 | 0.519
x1 = 0.9332 | 1.72e-07 | 3.03e-07 | 4.4e-07 | 1274.4 | 1251 | 1232.8 | 0.566 | 0.537 | 0.515
x1 = 1 | 0 | 0 | 0 | 1283.7 | 1271 | 1260 | 0.566 | 0.537 | 0.513
